Measurements taken from patent publication US20140228543A1, “MODIFIED AND DERIVATIZED ß-GLUCAN COMPOUNDS, COMPOSITIONS, AND METHODS” (Biothera, Inc., priority 2011, published 2014).

Columns and labels:
Format in all cases: cell-based
human neutrophils [1] = assay: β-glucan binding on neutrophils (BfD IV staining, flow cytometry); conditions: for Approximate Fold Increase/Decrease in MFI over Parent Compound (BfD IV) / MFI(BID IV) compound/MFI(BID IV) PBS: 200 μg/mL hexose concentration, 2 hr, 37° C., 10% serum
Experimental: This ability was evaluated by comparing the levels of neutrophil-bound parent versus the derivatives of β-glucans detected by BfD IV, a monoclonal antibody (MAb) specific for β-1,3/1,6 glucans. […] Table 2 lists the fold change of MFI values of BfD IV staining on neutrophils treated with each of the parent and derivatized glucans over that of PBS control-treated cells.
Enriched neutrophils were resuspended at 1×10^6 cells/mL in RPMI 1640 supplemented with 10% serum. The parent or the derivatized glucans at 200, μg/mL hexose concentration were added to neutrophils and incubated in a 37° C., 5% CO2 humidified incubator for 2 hr. After incubation, cells were washed twice with FACS buffer (HBSS supplemented with 1% FBS and 0.1% sodium azide) to remove any unbound β-glucan, and subsequently treated with Fc block. Post Fc block step, cells were stained with the BfD IV Ab for 30 min at 4° C. and washed twice with cold FACS buffer. Cells were then incubated with FITC-conjugated F(ab′)2 goat anti-mouse IgM for 30 min at 4° C. and washed once with cold FACS buffer before fixing with 1% paraformaldehyde. Events were collected on a LSRII flow cytometer and analysis was performed using FlowJo software.
Table 2 summarizes the fold change of MFI values of BfD IV staining on neutrophils treated with each of the parent, or derivatized β-glucans, over that of PBS control-treated cells.

human neutrophils [2] = assay: Neutrophil migration (chemotaxis) to serum-treated glucan
Experimental: This ability was measured by comparing the migratory capacity of human neutrophils to parent medium molecular weight (MMW) yeast β-glucan versus one of its derivatives, BT-1222. […] In contrast, the migration of neutrophils to MMW β-glucan or BT-1222 was 3.1 fold and 2.8 fold over medium alone, respectively.
Heparinized peripheral blood was obtained from healthy volunteers, and neutrophils were isolated by density gradient centrifugation with Ficoll-Paque followed by 3% […] sedimentation. Residual erythrocytes were removed by hypotonic lysis. Neutrophils were resuspended at 200,000 cells/ml in RPMI with 3% autologous serum (AS). MMW (3.3 mg/mL), BT-1222 (3.3 mg/mL) and PBS control were mixed with AS in 1:1 ratio and placed in a 37° C. water bath for 30 minutes. After incubation, Imprime and benzylamine-Imprime were diluted in RPMI to achieve 100, 50, 25, and 10 μg/ml concentrations with final concentration of serum being 3%. PBS control was diluted in a similar manner. […] The plate was placed in 37° C. incubator for 1 hour, lysed with 10 μl Cell-titer glo and read for luminescence on the M5 plate reader. Fold over media migration (chemotaxis) was calculated by dividing the RLU (relative luminescence units) for the treatment groups over migration to media (chemokinesis).

human neutrophils [3] = assay: iC3b deposition on neutrophils (flow cytometry); conditions: for Approximate Fold Increase/Decrease in MFI over Parent Compound (iC3b) / MFI(ic3b) compound/MFI(ic3b) PBS: 200 μg/mL hexose concentration, 2 hr, 37° C., 10% serum
Experimental: This ability was evaluated by comparing the levels of iC3b complement fragment detected on human neutrophils with the derivative versus parent β-glucan-bound.
Enriched neutrophils were resuspended at 1×10^6 cells/mL in RPMI 1640 supplemented with 10% serum. The parent or the derivatized glucans at 200, μg/mL hexose concentration were added to neutrophils and incubated in a 37° C., 5% C02 humidified incubator for 2 hr. After incubation, cells were washed twice with FACS buffer (HBSS supplemented with 1% FBS and 0.1% sodium azide) to remove any unbound β-glucan, stained with a neo-epitope specific anti-iC3b Ab and PE-conjugated goat anti-mouse IgG and subsequently analyzed by flow cytometry.
Table 1 below lists the fold change of mean fluorescence intensity (MFI) values of iC3b staining on neutrophils treated with each of the parent or derivatized glucans over that of PBS control-treated cells.

[4] = tested on: human peripheral blood mononuclear cells; assay: Oxidative burst (superoxide production by cytochrome c reduction) on immobilized glucan; conditions: human PBMCs
Experimental: Dilutions of MMW and BT-1222 were prepared out-of-plate in water. Subsequently, 50 μL of each dilution were added to triplicate wells of Costar® Universal-Bind™ microtiter plates. For immobilizing the glucans on the plate, the plate was irradiated for 5 min in a UV cross-linker, and then incubated at 50° C. until completely dried. After checking for complete dryness of the plate, it was cross-linked again under UV for 5 minutes. The microtiter plates were then blocked with 0.25% bovine serum albumin (BSA) in DPBS for 30 min at room temperature. Each microtiter plate included positive control wells and negative control wells to which only water with no polysaccharide was added at this point.
The oxidative burst response was then determined by standard methods by measuring SO production through the reduction of cytochrome c. Peripheral blood mononuclear cells (PBMCs) were resuspended in HBSS/HEPES buffer with 0.25% BSA at a concentration of 4×10^6 cells/mL and maintained at 37° C. until added to the plate. A 100 μL aliquot of 200 μM bovine cytochrome c solution in HBSS/HEPES buffer previously incubated at 37° C. was added to each well. Approximately 4.0×10^5 cells, in a 100 μL volume, were subsequently added to each well of the microtiter plate. The negative assay control consisting of cells and cytochrome c was added in the uncoated negative control wells. As a positive assay control, just before reading the plate, phorbol myristate acetate (PMA) at 100 ng/mL was added as the stimulus to the cells in the uncoated positive control wells to achieve a final concentration of 50 ng/mL. The plate was maintained at 37° C., and optical density (OD) in each well was read at 550 nm every 15 min for 120 min using a spectrophotometer. For each concentration of polysaccharide, the OD change (ΔOD) was calculated from the time of minimum response (1 min) to the time of maximum response (120 mins). The rate of SO production (nmoles of SO/10^6 cells/120 mins) was calculated from the ΔOD value and the extinction coefficient of cytochrome c (21.1×103 M-1 cm-1). […]

Substance: Benzyl Amine MMW Yeast Glucan Analog [BT-1222]
- Approximate Fold Increase/Decrease in MFI over Parent Compound (BfD IV) (human neutrophils [1]): 3.1 fold
- MFI(BID IV) compound/MFI(BID IV) PBS (human neutrophils [1]): 13.2 ± 3.6
- staining of BfD IV on glucan-bound neutrophils compared with MMW-bound neutrophils (human neutrophils [1]; histogram): higher
- migration of neutrophils compared with parent MMW (human neutrophils [2]; FIG. 2): comparable
- migration of neutrophils, fold over medium alone (human neutrophils [2]; glucan pre-incubated with autologous serum, 1 hour at 37° C.): 2.8 fold
- Approximate Fold Increase/Decrease in MFI over Parent Compound (iC3b) (human neutrophils [3]): 3.0 fold
- MFI(ic3b) compound/MFI(ic3b) PBS (human neutrophils [3]): 5.9 ± 2.2
- staining of iC3b on glucan-bound neutrophils compared with MMW-bound neutrophils (human neutrophils [3]; FIG. 3 histogram): higher
- rate of superoxide production in comparison to MMW ([4]; at each concentration tested): higher
- oxidative burst as measured by rate of superoxide production ([4]; plate-immobilized glucan, 120 min): dose dependent oxidative burst

Substance: Benzyl Amine Scleroglucan Analog [BT-1272]
- Approximate Fold Increase/Decrease in MFI over Parent Compound (BfD IV) (human neutrophils [1]): 1.7 fold
- MFI(BID IV) compound/MFI(BID IV) PBS (human neutrophils [1]): 3.2
- Approximate Fold Increase/Decrease in MFI over Parent Compound (iC3b) (human neutrophils [3]): 2.4 fold
- MFI(ic3b) compound/MFI(ic3b) PBS (human neutrophils [3]): 3.9

Substance: Propyl Amine LMW Yeast Glucan Analog [BT-1276]
- Approximate Fold Increase/Decrease in MFI over Parent Compound (BfD IV) (human neutrophils [1]): 1.0 fold
- MFI(BID IV) compound/MFI(BID IV) PBS (human neutrophils [1]): 1.5 ± 0.1
- Approximate Fold Increase/Decrease in MFI over Parent Compound (iC3b) (human neutrophils [3]): 1.1 fold
- MFI(ic3b) compound/MFI(ic3b) PBS (human neutrophils [3]): 1.2 ± 0.1

Substance: 3-Aminopropyl Imidazole MMW Yeast Glucan Analog [BT-1304]
- Approximate Fold Increase/Decrease in MFI over Parent Compound (BfD IV) (human neutrophils [1]): 0.5 fold
- MFI(BID IV) compound/MFI(BID IV) PBS (human neutrophils [1]): 2.1
- Approximate Fold Increase/Decrease in MFI over Parent Compound (iC3b) (human neutrophils [3]): 0.6 fold
- MFI(ic3b) compound/MFI(ic3b) PBS (human neutrophils [3]): 1.2

Substance: De-Branched Scleroglucan Analog [BT-1322]
- oxidative burst compared with parent scleroglucan and parent MMW yeast β-glucan ([4]; FIG. 5): higher oxidative burst

Substance: Dextran [Dextran (control), reference compound]
- MFI(BID IV) compound/MFI(BID IV) PBS (human neutrophils [1]): 1.0
- MFI(ic3b) compound/MFI(ic3b) PBS (human neutrophils [3]): 1.1 ± 0.2

Substance: Propyl Amine Dextran Analog [BT-1266]
- Approximate Fold Increase/Decrease in MFI over Parent Compound (BfD IV) (human neutrophils [1]): 1.1 fold
- MFI(BID IV) compound/MFI(BID IV) PBS (human neutrophils [1]): 1.1
- Approximate Fold Increase/Decrease in MFI over Parent Compound (iC3b) (human neutrophils [3]): 0.9 fold
- MFI(ic3b) compound/MFI(ic3b) PBS (human neutrophils [3]): 1.0

Substance: Benzyl Amine Laminarin Analog [BT-1234]
- Approximate Fold Increase/Decrease in MFI over Parent Compound (BfD IV) (human neutrophils [1]): 70.0 fold
- MFI(BID IV) compound/MFI(BID IV) PBS (human neutrophils [1]): 77
- Approximate Fold Increase/Decrease in MFI over Parent Compound (iC3b) (human neutrophils [3]): 3.9 fold
- MFI(ic3b) compound/MFI(ic3b) PBS (human neutrophils [3]): 5.1

Substance: Mannose Propyl Amine Laminarin Analog [BT-1281]
- Approximate Fold Increase/Decrease in MFI over Parent Compound (BfD IV) (human neutrophils [1]): 1.1 fold
- MFI(BID IV) compound/MFI(BID IV) PBS (human neutrophils [1]): 1.2
- Approximate Fold Increase/Decrease in MFI over Parent Compound (iC3b) (human neutrophils [3]): 0.8 fold
- MFI(ic3b) compound/MFI(ic3b) PBS (human neutrophils [3]): 1.1

Substance: Galactose Propyl Amine LMW Yeast Glucan Analog [BT-1277]
- Approximate Fold Increase/Decrease in MFI over Parent Compound (BfD IV) (human neutrophils [1]): 0.9 fold
- MFI(BID IV) compound/MFI(BID IV) PBS (human neutrophils [1]): 1.3
- Approximate Fold Increase/Decrease in MFI over Parent Compound (iC3b) (human neutrophils [3]): 0.9 fold
- MFI(ic3b) compound/MFI(ic3b) PBS (human neutrophils [3]): 1.0

Substance: Mannose Propyl Amine Dextran Analog [BT-1287]
- Approximate Fold Increase/Decrease in MFI over Parent Compound (BfD IV) (human neutrophils [1]): 1.0 fold
- MFI(BID IV) compound/MFI(BID IV) PBS (human neutrophils [1]): 1.0
- Approximate Fold Increase/Decrease in MFI over Parent Compound (iC3b) (human neutrophils [3]): 0.9 fold
- MFI(ic3b) compound/MFI(ic3b) PBS (human neutrophils [3]): 1.0
